Source: publication PMC9887116, “SDI-118, a novel procognitive SV2A modulator: First-in-human randomized controlled trial including PET/fMRI assessment of target engagement” (Frontiers in Pharmacology, 2023)

Key:
SV2B = conditions: relative to SV2A
From the text: (§1) ([Löscher et al., 2016]). […] ([Lynch et al., 2004]; [Matagne et al., 2008]).

SV2C = conditions: relative to SV2A
From the text: as §1

[1] = anti-convulsant effects (preclinical); type: in vivo; conditions: despite good brain penetration and target occupancy
From the text: as §1

[2] = tested on: animal models of cognitive deficit; test: animal models of cognitive deficit; type: in vivo; conditions: rodents
From the text: as §1

[3] = tested on: screening panel of receptors and enzymes; test: screening panel of receptors and enzymes; conditions: up to a concentration of 10 µM
Protocol: There were no SAEs or adverse events leading to subject discontinuation from the study. […] The most frequently reported drug related TEAEs were dizziness, hypersomnia, and somnolence, the latter reported only at the highest dose tested (i.e. 80 mg). The onset time of these events was generally short after dose administration, and their duration was usually short with resolution on the same day of dosing or the day after at the most. These mild and transient side effects started at the 10 mg dose and were also observed at higher doses. […] Occupancy at the higher doses would then progressively increase to a maximum of 96% of the predicted maximum at the 80 mg dose. Thus, the observed mild and transient side effects could be consistent with a target related effect seen, in some individuals, at occupancy levels greater than ∼60%. […] Further studies will elucidate this. None of the observed clinically significant changes in vital signs, laboratory parameters, and ECG intervals during the study were considered related to the administration of SDI-118.

[4] = 12-lead ECG QT-interval assessment in first-in-human study; type: in vivo, human (healthy male subjects)
Protocol: (§2) Safety and tolerability were assessed by questioning for adverse events (AEs), vital signs measurements (supine and orthostatic), 12-lead ECGs (always acquired in triplicate except during screening and post-study visit), standard lab safety tests on blood and urine samples, and physical and neurological examinations at regular time-points throughout the study.

[5] = food effect on pharmacokinetics, Part C; type: in vivo, human (healthy male subjects); conditions: 10 mg
Protocol: Blood samples for PK analysis were taken at regular time-points up to approximately 96 h post-dose in Part A and C. During the study, a protocol amendment was approved to extend the PK sampling scheme to include samples up to approximately 144 h post-dose, starting from the fourth dosing period. The rationale for this amendment was a longer than anticipated terminal elimination half-life of SDI-118 as concluded from preliminary PK data of the first three dosing periods. Plasma concentrations of SDI-118 were assayed using a GLP validated UPLC/MS-MS method. This method is linear for a range of concentrations from 0.200 to 500 ng/ml, with a lower limit of quantification (LLOQ) of 0.200 ng/ml. The following PK parameters were estimated: maximum plasma concentration Cmax, time of maximum plasma concentration Tmax, area under the plasma concentration versus time curve AUC, AUC0-last (up to the last quantifiable concentration Clast), AUCinf (extrapolated to infinity), and apparent terminal elimination half-life t½. Dose proportionality of SDI-118 Cmax, AUC0-last, and AUCinf from Part A was calculated based on a mixed-effect power model. Food effect on SDI-118 Cmax, AUC0-last, and AUCinf from Part C was calculated using a 90% confidence interval (CI) on geometric mean ratios (fed/fasted) based on a mixed-effect analysis of variance (ANOVA) with median difference in Tmax with 90% CI. Major interaction was excluded if the 90% CI on AUC and Cmax ratios (fed/fasted) were within the 50%–200% boundaries. The food effect assessment in Part C was performed on a secondary population, i.e. the PK completers set, which excluded one subject who discontinued the study after one dosing period (cfr. infra).

SV2A = test: minimum anticipated biological effect level in experimental rodent models; type: in vivo
Protocol: The study consisted of three parts. […] No stratification was performed.

[6] = in vivo
Protocol: (§3) The study consisted of three parts. Part A was a double-blind, placebo-controlled (in a 6:2 SDI-118:placebo ratio), single ascending oral dose study performed in 16 subjects equally divided into two cohorts. […] Dose levels of .3, 1, 3, 10, 30, 60, 90 and 120 mg of SDI-118 were set to be administered in an alternating panel design with a minimum washout period of 7 days between subsequent periods. In each period two different sentinel subjects were dosed (in a 1:1 SDI-118:placebo ratio) and followed-up for safety for at least 48 h before the rest of the cohort received the same dose level of the study drug.
as §2

[7] = first-in-human single oral dose safety and tolerability (adverse events)
Protocol: as §3, §2

[8] = all subjects (n = 32), all single doses pooled
[9] = all subjects (n = 32), only at 80 mg

O=C1C[C@H](c2cc(F)c(F)c(F)c2)CN1Cn1ncnc1Cl [SDI-118]
selectivity over SV2B (SV2B): over 1000 fold | selectivity over SV2C (SV2C): over 100 fold | anti-convulsant effects [1]: without anti-convulsant effects | cognitive effects in animal models of cognitive deficit [2]: showed cognitive enhancing effects | activity in screening panel of receptors and enzymes [3]: no activity was observed | largest observed mean increase from baseline QTcF ([4]; 12 h post-dose at 60 mg): +6.1 ms | single QT-interval value, any subject ([4]; no subject above this value): ≤ 500 ms | single corrected QT-interval Fridericia (QTcF) value, any subject ([4]; no subject above this value): ≤ 450 ms | QT-interval prolongation ([4]; single oral doses 0.3-80 mg): no QT-interval prolongations were observed | median Tmax ([5]; fasting state): 1.5 h | median Tmax ([5]; fed state (standardized high fat meal)): 4.0 h | effect of food on extent of exposure (Cmax, AUC0-last, AUCinf) ([5]; fed vs fasted (n = 8)): No clinically relevant effect of food | SV2A occupancy at which MABEL appeared to start (SV2A): approximately 10% | onset time of dizziness, hypersomnia, somnolence after dose administration [6]: up to 4 h | dizziness, drug related TEAE, number of events [7, 8]: 12 events | dizziness, drug related TEAE, number of subjects [7, 8]: nine | hypersomnia, drug related TEAE, number of events [7, 8]: 6 events | hypersomnia, drug related TEAE, number of subjects [7, 8]: five | somnolence, drug related TEAE, number of events [7, 9]: 2 events | somnolence, drug related TEAE, number of subjects [7, 9]: two | All drug related TEAEs: N (%) (number of subjects) ([7]; single oral dose 1 mg (N=8)): 1 (12.5) N (%) | All drug related TEAEs: No. (number of observations) ([7]; single oral dose 1 mg (N=8)): 1 | Headache, drug related TEAE: N (%) (number of subjects) ([7]; single oral dose 1 mg (N=8)): 1 (12.5) N (%) | Headache, drug related TEAE: No. (number of observations) ([7]; single oral dose 1 mg (N=8)): 1 | Nervous System Disorders, drug related TEAEs: N (%) (number of subjects) ([7]; single oral dose 1 mg (N=8)): 1 (12.5) N (%) | Nervous System Disorders, drug related TEAEs: No. (number of observations) ([7]; single oral dose 1 mg (N=8)): 1 | All drug related TEAEs: N (%) (number of subjects) ([7]; single oral dose 3 mg (N=6)): 1 (16.7) N (%) | All drug related TEAEs: No. (number of observations) ([7]; single oral dose 3 mg (N=6)): 1 | Cardiac Disorders, drug related TEAEs: N (%) (number of subjects) ([7]; single oral dose 3 mg (N=6)): 1 (16.7) N (%) | Cardiac Disorders, drug related TEAEs: No. (number of observations) ([7]; single oral dose 3 mg (N=6)): 1 | Postural Dizziness, drug related TEAE: N (%) (number of subjects) ([7]; single oral dose 3 mg (N=6)): 1 (16.7) N (%) | Postural Dizziness, drug related TEAE: No. (number of observations) ([7]; single oral dose 3 mg (N=6)): 1 | All drug related TEAEs: N (%) (number of subjects) ([7]; single oral dose 10 mg (N=16)): 4 (66.7) N (%) | All drug related TEAEs: No. (number of observations) ([7]; single oral dose 10 mg (N=16)): 5 | Blurred vision, drug related TEAE: N (%) (number of subjects) ([7]; single oral dose 10 mg (N=16)): 1 (16.7) N (%) | Blurred vision, drug related TEAE: No. (number of observations) ([7]; single oral dose 10 mg (N=16)): 1 | Dizziness, drug related TEAE: N (%) (number of subjects) ([7]; single oral dose 10 mg (N=16)): 1 (16.7) N (%) | Dizziness, drug related TEAE: No. (number of observations) ([7]; single oral dose 10 mg (N=16)): 1 | Eye Disorders, drug related TEAEs: N (%) (number of subjects) ([7]; single oral dose 10 mg (N=16)): 1 (16.7) N (%) | Eye Disorders, drug related TEAEs: No. (number of observations) ([7]; single oral dose 10 mg (N=16)): 1 | Fatigue, drug related TEAE: N (%) (number of subjects) ([7]; single oral dose 10 mg (N=16)): 1 (16.7) N (%) | Fatigue, drug related TEAE: No. (number of observations) ([7]; single oral dose 10 mg (N=16)): 1 | General Disorders, drug related TEAEs: N (%) (number of subjects) ([7]; single oral dose 10 mg (N=16)): 1 (16.7) N (%) | General Disorders, drug related TEAEs: No. (number of observations) ([7]; single oral dose 10 mg (N=16)): 1 | Hypersomnia, drug related TEAE: N (%) (number of subjects) ([7]; single oral dose 10 mg (N=16)): 2 (33.3) N (%) | Hypersomnia, drug related TEAE: No. (number of observations) ([7]; single oral dose 10 mg (N=16)): 2 | Nervous System Disorders, drug related TEAEs: N (%) (number of subjects) ([7]; single oral dose 10 mg (N=16)): 3 (50.0) N (%) | Nervous System Disorders, drug related TEAEs: No. (number of observations) ([7]; single oral dose 10 mg (N=16)): 3 | All drug related TEAEs: N (%) (number of subjects) ([7]; single oral dose 20 mg (N=8)): 4 (50.0) N (%) | All drug related TEAEs: No. (number of observations) ([7]; single oral dose 20 mg (N=8)): 4 | Dizziness, drug related TEAE: N (%) (number of subjects) ([7]; single oral dose 20 mg (N=8)): 4 (50.0) N (%) | Dizziness, drug related TEAE: No. (number of observations) ([7]; single oral dose 20 mg (N=8)): 4 | Nervous System Disorders, drug related TEAEs: N (%) (number of subjects) ([7]; single oral dose 20 mg (N=8)): 4 (50.0) N (%) | Nervous System Disorders, drug related TEAEs: No. (number of observations) ([7]; single oral dose 20 mg (N=8)): 4 | All drug related TEAEs: N (%) (number of subjects) ([7]; single oral dose 40 mg (N=6)): 3 (50.0) N (%) | All drug related TEAEs: No. (number of observations) ([7]; single oral dose 40 mg (N=6)): 4 | Dizziness, drug related TEAE: N (%) (number of subjects) ([7]; single oral dose 40 mg (N=6)): 3 (50.0) N (%) | Dizziness, drug related TEAE: No. (number of observations) ([7]; single oral dose 40 mg (N=6)): 3 | Hypersomnia, drug related TEAE: N (%) (number of subjects) ([7]; single oral dose 40 mg (N=6)): 1 (16.7) N (%) | Hypersomnia, drug related TEAE: No. (number of observations) ([7]; single oral dose 40 mg (N=6)): 1 | Nervous System Disorders, drug related TEAEs: N (%) (number of subjects) ([7]; single oral dose 40 mg (N=6)): 3 (50.0) N (%) | Nervous System Disorders, drug related TEAEs: No. (number of observations) ([7]; single oral dose 40 mg (N=6)): 4 | All drug related TEAEs: N (%) (number of subjects) ([7]; single oral dose 60 mg (N=6)): 3 (50.0) N (%) | All drug related TEAEs: No. (number of observations) ([7]; single oral dose 60 mg (N=6)): 4 | Cardiac Disorders, drug related TEAEs: N (%) (number of subjects) ([7]; single oral dose 60 mg (N=6)): 1 (16.7) N (%) | Cardiac Disorders, drug related TEAEs: No. (number of observations) ([7]; single oral dose 60 mg (N=6)): 1 | Dizziness, drug related TEAE: N (%) (number of subjects) ([7]; single oral dose 60 mg (N=6)): 2 (33.3) N (%) | Dizziness, drug related TEAE: No. (number of observations) ([7]; single oral dose 60 mg (N=6)): 2 | Hypersomnia, drug related TEAE: N (%) (number of subjects) ([7]; single oral dose 60 mg (N=6)): 1 (16.7) N (%) | Hypersomnia, drug related TEAE: No. (number of observations) ([7]; single oral dose 60 mg (N=6)): 1 | Nervous System Disorders, drug related TEAEs: N (%) (number of subjects) ([7]; single oral dose 60 mg (N=6)): 2 (33.3) N (%) | Nervous System Disorders, drug related TEAEs: No. (number of observations) ([7]; single oral dose 60 mg (N=6)): 3 | Postural Dizziness, drug related TEAE: N (%) (number of subjects) ([7]; single oral dose 60 mg (N=6)): 1 (16.7) N (%) | Postural Dizziness, drug related TEAE: No. (number of observations) ([7]; single oral dose 60 mg (N=6)): 1 | All drug related TEAEs: N (%) (number of subjects) ([7]; single oral dose 80 mg (N=6)): 4 (66.7) N (%) | All drug related TEAEs: No. (number of observations) ([7]; single oral dose 80 mg (N=6)): 8 | Dizziness, drug related TEAE: N (%) (number of subjects) ([7]; single oral dose 80 mg (N=6)): 2 (33.3) N (%) | Dizziness, drug related TEAE: No. (number of observations) ([7]; single oral dose 80 mg (N=6)): 2 | Headache, drug related TEAE: N (%) (number of subjects) ([7]; single oral dose 80 mg (N=6)): 1 (16.7) N (%) | Headache, drug related TEAE: No. (number of observations) ([7]; single oral dose 80 mg (N=6)): 1 | Hypersomnia, drug related TEAE: N (%) (number of subjects) ([7]; single oral dose 80 mg (N=6)): 2 (33.3) N (%) | Hypersomnia, drug related TEAE: No. (number of observations) ([7]; single oral dose 80 mg (N=6)): 2 | Irritability, drug related TEAE: N (%) (number of subjects) ([7]; single oral dose 80 mg (N=6)): 1 (16.7) N (%) | Irritability, drug related TEAE: No. (number of observations) ([7]; single oral dose 80 mg (N=6)): 1 | Nervous System Disorders, drug related TEAEs: N (%) (number of subjects) ([7]; single oral dose 80 mg (N=6)): 4 (66.7) N (%) | Nervous System Disorders, drug related TEAEs: No. (number of observations) ([7]; single oral dose 80 mg (N=6)): 7 | Psychiatric Disorders, drug related TEAEs: N (%) (number of subjects) ([7]; single oral dose 80 mg (N=6)): 1 (16.7) N (%) | Psychiatric Disorders, drug related TEAEs: No. (number of observations) ([7]; single oral dose 80 mg (N=6)): 1 | Somnolence, drug related TEAE: N (%) (number of subjects) ([7]; single oral dose 80 mg (N=6)): 2 (33.3) N (%) | Somnolence, drug related TEAE: No. (number of observations) ([7]; single oral dose 80 mg (N=6)): 2 | intensity of drug related TEAEs ([7]; single oral doses 0.3-80 mg): mild in intensity | neurological examination ([7]; single oral doses 0.3-80 mg): No abnormalities were found | serious adverse events (SAEs) ([7]; single oral doses 0.3-80 mg): no serious adverse events | safety and tolerability of single oral dose ([7]; up to 80 mg, healthy male subjects): safe and well tolerated
